Laboratory results taken from ChEMBL document CHEMBL1142751, “Synthesis and biological activity of mustard derivatives of combretastatins” (Bioorg Med Chem Lett, 2005).

Tested on: SH-SY5Y
Experiment: Inhibitory concentration against Human SH-SY5Y neuroblastoma cells
Assay type: functional, cell-based

Row | Compound | IC50 [nM]
1 | COc1ccc(/C=C\c2cc(OC)c(OC)c(OC)c2)cc1N(CCO)CCO | > 10000
2 | COc1ccc(/C=C\c2cc(OC)c(OC)c(OC)c2)cc1OCCN(CCCl)CCCl | 230
3 | COc1ccc(/C=C\c2cc(OC)c(OC)c(OC)c2)cc1N(CCCl)CCCl | 860
4 | COc1ccc(/C=C\c2cc(OC)c(OC)c(OC)c2)cc1OC(=O)CCCc1ccc(N(CCCl)CCCl)cc1 | 0.64
5 | COc1ccc(/C=C\c2cc(OC)c(OC)c(OC)c2)cc1O [COMBRETASTATIN A4] | 1.5
